Test results: ChEMBL document CHEMBL1136150, “Hypocholesterolemic activity of hesperetin derivatives” (2003)

Assays:
Type in all cases: functional
[1] = organism: Mus musculus; test: Effect on plasma total cholesterol in high cholesterol-fed mice after 10 day
[2] = organism: Mus musculus; test: Effect on plasma total cholesterol in high cholesterol-fed mice after 0 day
[3] = organism: Mus musculus; test: Body weight of the high cholesterol-fed mice after 10 day
[4] = organism: Mus musculus; test: Body weight of the high cholesterol-fed mice after 0 day

Row | Compound | Total cholesterol [1] [mg/dL] | Total cholesterol [2] [mg/dL] | Body weight [3] [g] | Body weight [4] [g]
1 | CCCCCCCCCCCCOc1cc(O)c2c(c1)OC(c1ccc(OC)c(O)c1)CC2=O (configuration not stated) | 189 | 95 | 22.4 | 22
2 | CCCCCCCCCCCC(=O)Oc1cc(O)c2c(c1)OC(c1ccc(OC)c(O)c1)CC2=O (configuration not stated) | 192 | 95 | 22.4 | 22.4
3 | CCCCCCCCCCCCCCCCCC(=O)Oc1cc(O)c2c(c1)OC(c1ccc(OC)c(O)c1)CC2=O (configuration not stated) | 214 | 95 | 23.7 | 22.3
4 | CCOc1cc(O)c2c(c1)OC(c1ccc(OC)c(O)c1)CC2=O (configuration not stated) | 218 | 102 | 22.5 | 21.9
5 | CCCCCCCC/C=C\CCCCCCCCOc1cc(O)c2c(c1)OC(c1ccc(OC)c(O)c1)CC2=O (configuration not stated) | 192 | 96 | 23.7 | 23.4
6 | CCCCCCCCCCCCCCCCCCOc1cc(O)c2c(c1)OC(c1ccc(OC)c(O)c1)CC2=O (configuration not stated) | 208 | 101 | 24.4 | 23.1
7 | COc1ccc(C2CC(=O)c3c(O)cc(OC(C)=O)cc3O2)cc1O (configuration not stated) | 220 | 96 | 23.7 | 23.4
8 | CCCCCCCCCCCCCCCCOc1cc(O)c2c(c1)OC(c1ccc(OC)c(O)c1)CC2=O (configuration not stated) | 202 | 93 | 23 | 22.5
9 | CCCCCCCCCCCCCCCC(=O)Oc1cc(O)c2c(c1)OC(c1ccc(OC)c(O)c1)CC2=O (configuration not stated) | 209 | 97 | 23.4 | 21.7
10 | CCCCCCCC/C=C\CCCCCCCC(=O)Oc1cc(O)c2c(c1)OC(c1ccc(OC)c(O)c1)CC2=O (configuration not stated) | – | – | 23.8 | 22.3
11 | COc1ccc([C@@H]2CC(=O)c3c(O)cc(O)cc3O2)cc1O [HESPERETIN] | 216 | 103 | 25.6 | 25.4
